For 14 compounds, EC50 results are on record in patent publication US20220119383A1 (Gilead Sciences, Inc., priority 2018, published 2022).

pEC50: −log10 of the molar value.

For one experiment, the target named is T1, α4β7 integrin (Homo sapiens, UniProt P13612+P26010).
T1 construct: monitoring the capture of α4β7 integrin expressing cells; endogenous in cells; host or cells: RPMI8866 cells
T1 sequence (P13612 34-1032): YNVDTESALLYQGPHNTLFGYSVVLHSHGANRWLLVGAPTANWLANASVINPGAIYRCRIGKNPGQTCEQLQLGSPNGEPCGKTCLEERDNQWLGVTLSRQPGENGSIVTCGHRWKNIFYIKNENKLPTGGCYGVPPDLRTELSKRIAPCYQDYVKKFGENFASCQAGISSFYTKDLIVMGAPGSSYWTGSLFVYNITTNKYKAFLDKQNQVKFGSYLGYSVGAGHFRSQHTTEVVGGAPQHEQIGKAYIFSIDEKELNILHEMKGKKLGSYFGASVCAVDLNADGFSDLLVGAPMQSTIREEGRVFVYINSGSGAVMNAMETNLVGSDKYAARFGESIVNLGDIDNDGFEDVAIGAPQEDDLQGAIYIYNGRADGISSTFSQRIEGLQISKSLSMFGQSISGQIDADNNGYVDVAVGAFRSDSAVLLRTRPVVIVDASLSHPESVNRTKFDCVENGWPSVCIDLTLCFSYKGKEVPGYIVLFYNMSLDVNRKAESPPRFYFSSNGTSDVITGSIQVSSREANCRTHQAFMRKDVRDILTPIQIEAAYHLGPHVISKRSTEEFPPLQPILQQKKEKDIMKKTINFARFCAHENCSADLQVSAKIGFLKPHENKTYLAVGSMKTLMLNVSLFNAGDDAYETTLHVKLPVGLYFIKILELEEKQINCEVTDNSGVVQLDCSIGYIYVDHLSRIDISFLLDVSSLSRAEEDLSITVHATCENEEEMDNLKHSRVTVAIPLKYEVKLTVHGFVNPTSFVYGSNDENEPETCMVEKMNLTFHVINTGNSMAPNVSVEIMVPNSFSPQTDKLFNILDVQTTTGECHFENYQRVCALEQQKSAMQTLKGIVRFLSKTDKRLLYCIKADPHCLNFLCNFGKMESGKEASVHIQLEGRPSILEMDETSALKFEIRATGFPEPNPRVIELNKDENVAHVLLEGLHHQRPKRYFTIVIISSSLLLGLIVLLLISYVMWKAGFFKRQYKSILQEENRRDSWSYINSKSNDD
T1 sequence (P26010 20-798): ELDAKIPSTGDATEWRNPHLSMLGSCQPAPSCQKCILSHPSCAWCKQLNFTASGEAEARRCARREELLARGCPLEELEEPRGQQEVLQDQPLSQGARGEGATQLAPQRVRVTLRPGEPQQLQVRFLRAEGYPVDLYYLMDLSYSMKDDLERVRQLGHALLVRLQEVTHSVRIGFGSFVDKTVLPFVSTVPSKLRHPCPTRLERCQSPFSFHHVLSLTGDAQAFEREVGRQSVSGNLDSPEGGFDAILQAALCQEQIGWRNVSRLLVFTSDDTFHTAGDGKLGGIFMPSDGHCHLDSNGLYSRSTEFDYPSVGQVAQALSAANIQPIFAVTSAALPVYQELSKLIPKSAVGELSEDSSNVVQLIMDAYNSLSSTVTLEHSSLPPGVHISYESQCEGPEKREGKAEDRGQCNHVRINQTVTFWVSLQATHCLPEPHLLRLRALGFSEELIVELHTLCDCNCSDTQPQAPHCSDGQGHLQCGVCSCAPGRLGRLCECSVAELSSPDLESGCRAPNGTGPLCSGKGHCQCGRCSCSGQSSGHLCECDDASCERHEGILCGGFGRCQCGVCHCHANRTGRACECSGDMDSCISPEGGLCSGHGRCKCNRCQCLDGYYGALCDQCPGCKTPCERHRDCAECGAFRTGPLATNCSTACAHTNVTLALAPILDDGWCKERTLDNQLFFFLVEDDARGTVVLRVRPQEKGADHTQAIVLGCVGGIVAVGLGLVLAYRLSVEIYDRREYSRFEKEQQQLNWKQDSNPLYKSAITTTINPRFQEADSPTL
Briefly: α4β7 integrin cell capture assay. The following applies: Table 1; capture of RPM18866 cells on MadCAM-1 extracellular domain-coated plate. It counts as cell-based. Here is the method:
The potency of inhibitors in preventing α4β7 integrin interaction with MadCAM-1 was measured by monitoring the capture of α4β7 integrin expressing cells on a recombinant MadCAM-1 extracellular domain-coated plate. […] The plates were then washed with PBS and blocked with 3% BSA for 2 hours before being washed again.
RPM18866 cells were spun down and re-suspended in assay medium (DMEM+0.5% FBS+0.5 mM MnCl2) at a density of 0.5×10^6 cells/mL. […] The plates were incubated at 37° C. for 1 hour. 50 μL of cells were transferred to the blocked, MadCAM-1-coated plates and incubated for 30 minutes at 37° C. […] The plates were incubated for 90 minutes at room temperature. The plates were then washed 3 times with 70 μL of PBS per well and imaged on a Cellomics ArrayScan instrument. The cells that were bound to the plate were counted and plotted against the compound concentration to determine the EC50 of the test compounds.
The compound `O=C(N[C@@H](Cc1ccc(-c2cccc3c2OCCO3)c2ncccc12)C(=O)O)c1c(F)cc(NS(=O)(=O)c2ccc(-c3ccnc(F)c3)cc2)cc1F` [Example 51] had a pEC50 of 8.54. In turn, `COc1cc(F)cc(C(F)(F)F)c1-c1ccc(C[C@H](NC(=O)c2c(F)cccc2F)C(=O)O)c2cccnc12` (single isomer, unassigned) [Example 8] showed a pEC50 of 7.38.

Consider `N#Cc1ccc(-c2ccc(C[C@H](NC(=O)c3c(F)cc(N4CCOC[C@H]4C(F)(F)F)cc3F)C(=O)O)c3cccnc23)c(Cl)c1` (single isomer, unassigned) [Example 83], for which the pEC50 was 7.48. Still for that read-out and setting: in the case of `N#Cc1ccc(-c2ccc(C[C@H](NC(=O)c3c(F)cc(NC(C4CC4)C(F)(F)F)cc3F)C(=O)O)c3cccnc23)c(Cl)c1` (some centres unmarked) [Example 89] it was 7.84; in that of “(S)-3-(8-(2-chloro-4-cyanophenyl)quinolin-5-yl)-2-(2,6-difluoro-4-((R)-3-(trifluoromethyl)morpholino)benzamido)propanoic acid [Example 148]”, 7.22; in that of “2,6-difluoro-4-(3-(trifluoromethyl)morpholino)benzoic acid [Example 81]”, 8.22.

`COc1cc(F)cc(C(F)(F)F)c1-c1ccc(C[C@H](NC(=O)c2c(F)cccc2F)C(=O)O)c2cccnc12` (single isomer, unassigned) [Example 7] gave a pEC50 of 8.72. With `CC[C@@H](Nc1cc(F)c(C(=O)N[C@@H](Cc2ccc(-c3c(C(F)(F)F)c4cc(F)ccc4n(C)c3=O)c3ncccc23)C(=O)O)c(F)c1)C(F)(F)F` [Example 124], the pEC50 is 9.22. The same measure, in the same setting: in the case of `O=C(N[C@@H](Cc1ccc(-c2ncc3ccccc3c2Cl)c2ncccc12)C(=O)O)c1c(F)cccc1F` [Example 66, (S)-3-(8-(4-chloroisoquinolin-3-yl)quinolin-5-yl)-2-(2,6-difluorobenzamido)propanoic acid] it was 7.72; in that of `CC[C@@H](Nc1cc(F)c(C(=O)N[C@@H](Cc2ccc(-c3cn(C)c(=O)n(C)c3=O)c3ncccc23)C(=O)O)c(F)c1)C(F)(F)F` [Example 113, (S)-2-(2,6-difluoro-4-(((R)-1,1,1-trifluorobutan-2-yl)amino)benzamido)-3-(8-(1,3-dimethyl-2,4-dioxo-1,2,3,4-tetrahydropyrimidin-5-yl)quinolin-5-yl)propanoic acid], 8.92. Still for that read-out and setting: then `N#Cc1ccc(-c2ccc(C[C@H](NC(=O)c3c(F)cc(N4CCOC[C@@H]4C(F)(F)F)cc3F)C(=O)O)c3cccnc23)c(Cl)c1` (single isomer, unassigned) [Example 82], with 8.33.

Staying with this experiment, now noted: Table 2; capture of RPM18866 cells on MadCAM-1 extracellular domain-coated plate.
The compound `Cc1c(-c2ccc(C[C@H](NC(=O)c3c(F)cc(N[C@H](C)C(F)(F)F)cc3F)C(=O)O)c3cccnc23)c(=O)n(C)c2ccc(F)cc12` (atropisomer, axis not shown) [Example 187] showed a pEC50 of 8.96. On the same count and under the same terms, then `CC[C@@H](Nc1cc(F)c(C(=O)N[C@@H](Cc2ccc(-c3c(N4CCC4)cc(C)n(C)c3=O)c3ncccc23)C(=O)O)c(F)c1)C(F)(F)F` [Example 184], with 9.05.

Still in this experiment, the particulars now being: capture of α4β7 integrin expressing RPM18866 cells on MadCAM-1 extracellular domain-coated plate.
`Cc1cc(N2CCOC[C@@H]2C(F)(F)F)cc(F)c1C(=O)N[C@@H](Cc1ccc(-n2c(=O)c3cccnc3n(C)c2=O)c2ncccc12)C(=O)O` [Example 402] gave a pEC50 of 10.00.
